Test results from paper PMC9939733 (The Journal of Biological Chemistry, 2023).
Residue numbers refer to the chain shown, from its start. Values joined by “and” are separate entries in the source; they are usually repeats but may differ in a detail not shown here. Equal entries are not always repeated.

Tests used:
Type in all cases: biochemical
[1] = target: T1, WT IDH2 (Homo sapiens, UniProt P48735); experiment: Absorbance assay, substrate activity in the absence of DL-isocitrate; settings: no DL-isocitrate; […] test compound, 75 μM NADP+, 2.0 nM WT IDH2; compared to DL-isocitrate
T1 construct: made in house; host or cells: Sf21 insect cells (cell pellets prepared at Evotec)
T1 sequence (P48735 40-452): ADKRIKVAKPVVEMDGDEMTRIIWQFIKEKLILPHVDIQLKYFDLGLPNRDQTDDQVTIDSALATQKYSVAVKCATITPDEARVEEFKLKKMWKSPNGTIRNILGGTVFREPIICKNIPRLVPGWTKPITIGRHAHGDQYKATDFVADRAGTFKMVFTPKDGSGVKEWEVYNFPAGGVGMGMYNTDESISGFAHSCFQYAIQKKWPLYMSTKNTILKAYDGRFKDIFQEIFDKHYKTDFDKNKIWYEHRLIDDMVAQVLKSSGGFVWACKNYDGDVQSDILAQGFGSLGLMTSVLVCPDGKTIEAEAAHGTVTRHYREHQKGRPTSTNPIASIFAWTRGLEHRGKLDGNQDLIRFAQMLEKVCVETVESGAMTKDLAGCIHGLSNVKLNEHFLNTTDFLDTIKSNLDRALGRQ
Method in brief: (§1)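 Compound was added to all wells at once with a multichannel pipettor. Reagent was then dispensed to start the reaction. Every condition was done in four technical replicates.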

[2] = target: T2, WT IDH1 (Homo sapiens, UniProt O75874); experiment: as above; settings: no DL-isocitrate; […] test compound, 75 μM NADP+, 2.0 nM WT IDH1; compared to DL-isocitrate
T2 construct: made in house; host or cells: Escherichia coli BL21(DE3) pLyS
T2 sequence (O75874 whole entry): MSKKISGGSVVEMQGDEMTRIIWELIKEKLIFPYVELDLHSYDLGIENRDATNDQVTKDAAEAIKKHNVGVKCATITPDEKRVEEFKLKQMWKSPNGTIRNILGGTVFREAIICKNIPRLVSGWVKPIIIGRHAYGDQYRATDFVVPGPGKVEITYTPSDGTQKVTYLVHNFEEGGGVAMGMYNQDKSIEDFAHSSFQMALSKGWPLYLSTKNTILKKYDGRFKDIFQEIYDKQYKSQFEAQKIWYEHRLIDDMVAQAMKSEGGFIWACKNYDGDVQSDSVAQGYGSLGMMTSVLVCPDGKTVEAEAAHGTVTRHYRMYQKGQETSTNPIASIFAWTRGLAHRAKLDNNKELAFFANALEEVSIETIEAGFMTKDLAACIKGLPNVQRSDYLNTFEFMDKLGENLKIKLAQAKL
Method in brief: as §1

[3] = target: T1, WT IDH2; experiment: Absorbance assay, WT activity in the presence of equimolar DL-isocitrate (inhibition); settings: […] isocitrate and […] test compound, 75 μM NADP+, 2.0 nM WT IDH2
Method in brief: as §1

[4] = target: T2, WT IDH1; experiment: as above; settings: […] isocitrate and […] test compound, 75 μM NADP+, 2.0 nM WT IDH1
Method in brief: as §1

[5] = target: T3, R132H IDH1 (Homo sapiens, UniProt O75874, R132H); experiment: Absorbance assay, variant activity in the presence of equimolar 2OG (inhibition screen); parameters: made in house; host or cells: Escherichia coli BL21(DE3) pLyS; settings: […] 2OG and […] test compound, 0.03 μM R132H IDH1, 50 μM NADPH
Method in brief: as §1
Target sequence in this assay (O75874 whole entry R132H): as the sequence (O75874 whole entry) above, with R132H counted along it

[6] = target: T4, R140Q IDH2 (Homo sapiens, UniProt P48735, R140Q); experiment: as above; settings: 6.0 mM 2OG and 6.0 mM test compound, 0.03 μM R140Q IDH2, 50 μM NADPH
T4 construct: made in house; host or cells: Sf21 insect cells (cell pellets prepared at Evotec)
T4 sequence (P48735 40-452 R140Q): T1 sequence (P48735 40-452) with R101Q
Method in brief: as §1

[7] = target: T5, R172K IDH2 (Homo sapiens, UniProt P48735, R172K); experiment: as above; settings: 1.0 mM 2OG and 1.0 mM test compound, 0.03 μM R172K IDH2, 50 μM NADPH
T5 construct: made in house; host or cells: Sf21 insect cells (cell pellets prepared at Evotec)
T5 sequence (P48735 40-452 R172K): T1 sequence (P48735 40-452) with R133K
Method in brief: as §1

[8] = target: T5, R172K IDH2; experiment: Steady-state kinetics, absorbance assay; settings: 0.03 μM enzyme, 50 μM NADPH, 20 mM MgCl2, pH 8.0
Description: (§2) Compounds were dispensed using a CyBio SDW-CW CyBi-Well Simultaneous Pipettor and assay started using a ThermoFisher Multidrop Combi reagent dispenser.
(§3) Reactions were performed as technical duplicates, and all assays were carried out in two independent duplicates.

[9] = target: T3, R132H IDH1; experiment: Electrochemical assay (FNR+R132H IDH1)@ITO/PGE electrode; parameters: made in house; host or cells: Escherichia coli BL21(DE3) pLyS (IDH1 R132H); settings: for predicted change in catalytic rate: simulated from experimental Km and vmax, if 500 μM substrate consumed at the electrode-solution interface per scan
Description: Assays were carried out in an anaerobic glovebox (Glove Box Technology) under a nitrogen atmosphere. A potentiostat (Autolab PGSTAT 10) running on Nova software was used for all experiments. As previously described, the electrochemical apparatus included an Autolab electrode rotator, a two-chamber custom-made glass electrochemical cell, and custom-made rotating pyrolytic graphite edge (PGE) electrodes ([55]). Platinum wire was used as the counter electrode; it was placed in the working electrode chamber. Electrode potentials (E) were measured against a saturated calomel electrode and converted to the standard hydrogen electrode using a temperature-dependent equation (at 25 °C: ESHE = ESCE + 0.2412 V) ([55]). Nanoporous indium tin oxide (ITO) electrodes were made by electrophoretically depositing ITO nanoparticles (<50 nm, Sigma-Aldrich) onto PGE electrodes (ITO/PGE) as previously described ([55]). […] In all experiments, 0.85 nmol (homodimer basis) of IDH1 R132H was used; the amount of coloaded FNR was adjusted to achieve the desired enzyme loading ratio. Electrodes loaded with enzyme were thoroughly rinsed using buffer solution before each experiment to remove excess enzyme. […]
and controlled electrochemically under steady-state conditions (1).
Conditions: 25 °C, mixed buffer (20 […]
mM each MES, TAPS, CHES, pH 8.0), 10 mM MgCl2, 10 µM NADPH, 4 mL cell volume, (FNR+R132H IDH1)@ITO/PGE electrode, electrode area 0.06 cm2, rotated at 1000 rpm, E = –0.513 V vs SHE, enzyme loading ratios (molar): FNR/R132H IDH1; 2.5 (dimer basis).
(1 picture or pasted object on this page, not shown here)
Target sequence in this assay (O75874 2-414 R132H): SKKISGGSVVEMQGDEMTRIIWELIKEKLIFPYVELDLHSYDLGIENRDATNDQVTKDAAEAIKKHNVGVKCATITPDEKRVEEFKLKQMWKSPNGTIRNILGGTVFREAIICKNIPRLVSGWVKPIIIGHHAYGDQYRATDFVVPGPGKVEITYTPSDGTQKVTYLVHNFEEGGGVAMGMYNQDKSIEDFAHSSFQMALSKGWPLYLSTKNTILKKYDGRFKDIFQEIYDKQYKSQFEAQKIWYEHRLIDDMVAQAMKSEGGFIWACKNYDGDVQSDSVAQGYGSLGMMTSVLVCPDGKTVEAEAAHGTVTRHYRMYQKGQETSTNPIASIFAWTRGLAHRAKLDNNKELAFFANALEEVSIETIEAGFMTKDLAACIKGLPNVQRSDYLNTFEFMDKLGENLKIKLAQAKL

[10] = target: T3, R132H IDH1; experiment: Steady-state kinetics, absorbance assay; parameters: made in house; host or cells: Escherichia coli BL21(DE3) pLyS; settings: for Kmapp / kcatapp: 0.03 μM enzyme, 50 μM NADPH, 20 mM MgCl2, pH 8.0
Description: as §2, §3
Target sequence in this assay (O75874 whole entry R132H): as the sequence (O75874 whole entry) above, with R132H counted along it

[11] = target: T6, R132C/S280F IDH1 (Homo sapiens, UniProt O75874, R132C/S280F); experiment: Steady-state kinetics, NADPH turnover assay
T6 construct: made in house
T6 sequence (O75874 whole entry R132C/S280F): as the sequence (O75874 whole entry) above, with R132C, S280F counted along it
Description: independent runs, each composed of technical duplicates (n = 2; mean ± SD); c) R132C/S280F IDH1 assays
monitoring NADPH turnover were performed as reported (3). […]

[12] = target: T4, R140Q IDH2; experiment: Steady-state kinetics, absorbance assay; settings: 0.03 μM enzyme, 50 μM NADPH, 20 mM MgCl2, pH 8.0
Description: as §2, §3

activity [%] (%-substrate conversion after 20 min incubation) [1] | activity [%] (%-substrate conversion after 20 min incubation) [2] | activity [%] (%-substrate conversion after 20 min incubation) [3] | activity [%] (%-substrate conversion after 20 min incubation) [4] | activity [%] (%-substrate conversion after 20 min incubation) [5] | activity [%] (%-substrate conversion after 20 min incubation) [6] | activity [%] (%-substrate conversion after 20 min incubation) [7] | kcatapp [8] | predicted change in catalytic rate [9] | Vmax (predicted for single enantiomer) ([10]; predicted, Fig. 3H simulation) | Kmapp [10] | kcatapp [10] | Kmapp [11] | kcatapp [11] | Kmapp [12] | kcatapp [12] | Kmapp [8] | decrease of R132H IDH1 faradaic 'coupled' current during each scan ([9]; cyclic voltammetry, stationary electrode, 20 μM NADPH, 10 mM MgCl2, pH 8) | Vmax ([10]; experimental value used for Michaelis-Menten simulation, Fig. 3H) | SMILES
< 10% | < 10% | 96±5% | 105±5% | 294 ± 31% | 632 ± 68% | 105 ± 6% | ~2.7 s⁻¹ | – | – | – | – | – | – | – | – | – | – | – | CCCC(CC(=O)O)C(=O)C(=O)O (racemic) [compound 3]
– | – | – | – | – | – | – | – | −46% | 9.6 µM/min | – | – | – | – | – | – | – | – | – | CC(CC(=O)C(=O)O)C(=O)O (single isomer, unassigned) [enantiopure 12]
< 10% | < 10% | 97±3% | 94±1% | 391 ± 20% | 107 ± 4% | 151 ± 5% | 4.8 ± 0.2 s⁻¹ | – | – | 3.7 ± 0.1 mM | 6.9 ± 0.4 s⁻¹ | 0.31 ± 0.01 mM | 20.2 ± 0.5 s⁻¹ | 2.0 ± 0.8 mM and ~2.0 mM | 5.4 ± 0.3 s⁻¹ | 4.2 ± 0.4 mM | – | – | CC(CC(=O)O)C(=O)C(=O)O (stereo not drawn) [compound 1, 3-methyl-2OG]
< 10% | < 10% | 98±2% | 96±1% | 376 ± 21% | 753 ± 72% | 126 ± 3% | 7.8 ± 1.8 s⁻¹ and ~7.8 s⁻¹ | – | – | 5.7 ± 3.3 mM | 9.2 ± 0.4 s⁻¹ | 0.24 ± 0.01 mM | 15 ± 3 s⁻¹ | 3.8 ± 0.8 mM and 3.8 to 7.5 mM | 9.7 ± 0.4 s⁻¹ | 16 ± 5 mM | – | – | CCCCC(CC(=O)O)C(=O)C(=O)O (stereo not drawn) [compound 4, 3-butyl-2OG]
< 10% | < 10% | 100±4% | 107±4% | 161 ± 26% | 281 ± 4% | 112 ± 13% | – | −22% | – | 12 mM | – | – | – | – | – | – | −43% | 9.6 µM/min | CC(CC(=O)C(=O)O)C(=O)O (stereo not drawn) [compound 12, 4-methyl-2OG]
